Measurements: ChEMBL document CHEMBL1140726, “Discovery and biological evaluation of 5-aryl-2-furfuramides, potent and selective blockers of the Nav1.8 sodium channel with efficacy in models of neuropathic and inflammatory pain” (J Med Chem, 2008)

Columns and labels:
[1] = Ratio of drug level in brain to plasma in Sprague-Dawley rat; format: ADME
[2] = molecular target: T1, Translocator protein (Homo sapiens, UniProt P30536); assay: Binding affinity to peripheral benzodiazepine receptor
[3] = molecular target: Sodium channel protein type 3 subunit alpha (Homo sapiens) (UniProt Q9NY46); assay: Inhibition of human Nav1.3 channel at 3 uM
[4] = molecular target: T1, Translocator protein; assay: Binding affinity to peripheral benzodiazepine receptor at 10 uM
[5] = molecular target: T2, Nav1.5 (sodium channel protein type 5 subunit alpha) (Homo sapiens, UniProt Q14524); assay: Inhibition of human Nav1.5 channel at 10 uM
[6] = molecular target: T2, Nav1.5 (sodium channel protein type 5 subunit alpha); assay: Inhibition of human Nav1.5 channel at 3 uM
[7] = tested on: Rattus norvegicus; assay: Antinociceptive activity in ip dosed Sprague-Dawley rat assessed as attenuation of mechanical allodynia in chung model of neuropathic pain; format: functional
[8] = Activity at rat dorsal root ganglion in resting state with prepulse voltage of -100 mV assessed as blockade of TTx-resistant sodium current at 0.1 uM by whole-cell patch clamp technique; format: functional
[9] = molecular target: T3, D(1A) dopamine receptor (Homo sapiens, UniProt P21728); conditions: 10 uM
[10] = molecular target: T4, 5-hydroxytryptamine receptor 2A (Homo sapiens, UniProt P28223); assay: Binding affinity to 5HT2A receptor
[11] = tested on: Rattus norvegicus; assay: Antinociceptive activity in ip dosed Sprague-Dawley rat assessed as reduction of CFA-induced thermal hyperalgesia; format: functional; parameters: Activity: scale not given: the % may be the effect or the level left
[12] = molecular target: T5, Sodium channel protein type 10 subunit alpha (Homo sapiens, UniProt Q9Y5Y9); assay: Activity at human recombinant Nav 1.8 channel expressed in HEK293 cells in inactivated state with prepulse voltage of -40 mV assessed as blockade of TTx-resistant sodium current at 0.01 uM; format: cell-based
[13] = molecular target: T5, Sodium channel protein type 10 subunit alpha; assay: Activity at human recombinant Nav 1.8 channel expressed in HEK293 cells in resting state with prepulse voltage of -100 mV assessed as blockade of TTx-resistant sodium current at 0.01 uM; format: cell-based
[14] = molecular target: T5, Sodium channel protein type 10 subunit alpha; assay: Inhibition of human recombinant Nav 1.8 channel expressed in HEK293 cells at 0.003 uM; format: cell-based
[15] = molecular target: T6, Cholecystokinin receptor type A (Homo sapiens, UniProt P32238); assay: Binding affinity to CCKAR
T6 sequence (P32238 whole entry): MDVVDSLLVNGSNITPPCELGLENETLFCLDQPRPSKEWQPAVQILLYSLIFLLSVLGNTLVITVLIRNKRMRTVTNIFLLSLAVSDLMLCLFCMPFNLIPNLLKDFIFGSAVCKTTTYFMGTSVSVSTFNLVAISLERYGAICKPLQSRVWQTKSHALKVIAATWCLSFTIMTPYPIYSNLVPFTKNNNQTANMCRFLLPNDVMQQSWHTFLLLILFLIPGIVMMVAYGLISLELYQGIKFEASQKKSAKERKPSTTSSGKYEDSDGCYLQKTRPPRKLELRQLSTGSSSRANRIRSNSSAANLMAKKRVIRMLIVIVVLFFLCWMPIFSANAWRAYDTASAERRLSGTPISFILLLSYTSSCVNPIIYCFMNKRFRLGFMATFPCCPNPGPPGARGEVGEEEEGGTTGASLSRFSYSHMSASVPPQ

[16] = molecular target: T5, Sodium channel protein type 10 subunit alpha; assay: Inhibition of human recombinant Nav 1.8 channel expressed in HEK293 cells at 0.01 uM; format: cell-based
[17] = Activity at rat dorsal root ganglion in resting state with prepulse voltage of -100 mV assessed as blockade of TTx-resistant sodium current at 0.3 uM by whole-cell patch clamp technique; format: functional
[18] = molecular target: T4, 5-hydroxytryptamine receptor 2A; conditions: 10 uM
[19] = Intrinsic clearance in Sprague-Dawley rat microsomes after 1 hr; format: ADME, Liver, Microsome
[20] = Volume of distribution at steady state in Sprague-Dawley rat; format: ADME, organism-based; conditions: in vivo, read-out: Vdss
[21] = molecular target: Sodium channel protein type 9 subunit alpha (Homo sapiens) (UniProt Q15858); assay: Inhibition of human Nav1.7 channel at 3 uM
[22] = molecular target: Sodium channel protein type 9 subunit alpha (Homo sapiens) (UniProt Q15858); assay: Inhibition of human Nav1.7 channel at 10 uM
[23] = molecular target: T5, Sodium channel protein type 10 subunit alpha; assay: Activity at human recombinant Nav 1.8 channel expressed in HEK293 cells in resting state with prepulse voltage of -100 mV assessed as blockade of TTx-resistant sodium current at 0.003 uM; format: cell-based
[24] = molecular target: Sodium channel protein type 2 subunit alpha (Homo sapiens) (UniProt Q99250); assay: Inhibition of human Nav1.2 channel at 3 uM
[25] = tested on: Rattus norvegicus; assay: Antinociceptive activity in ip dosed Sprague-Dawley rat assessed as reduction of mechanical allodynia in Bennett model of neuropathic pain; format: functional; parameters: Activity: scale not given: the % may be the effect or the level left
[26] = molecular target: T3, D(1A) dopamine receptor; assay: Binding affinity to dopamine D1 receptor
[27] = Half life in Sprague-Dawley rat; format: ADME, organism-based; conditions: in vivo
[28] = molecular target: Sodium channel protein type 3 subunit alpha (Homo sapiens) (UniProt Q9NY46); assay: Inhibition of human Nav1.3 channel at 10 uM
[29] = Activity at rat dorsal root ganglion in inactivated state with prepulse voltage of -40 mV assessed as blockade of TTx-resistant sodium current at 0.1 uM by whole-cell patch clamp technique; format: functional
[30] = molecular target: Sodium channel protein type 10 subunit alpha (Mus musculus, UniProt Q6QIY3); assay: Inhibition of mouse recombinant Nav 1.8 channel expressed in HEK293 cells by isotopic efflux assay; format: cell-based
[31] = molecular target: T7, Cholecystokinin receptor type A (Homo sapiens) (UniProt P32238); conditions: 10 uM
T7 sequence (whole entry): T6 sequence (P32238 whole entry)

[32] = molecular target: Sodium channel protein type 2 subunit alpha (Homo sapiens) (UniProt Q99250); assay: Inhibition of human Nav1.2 channel at 10 uM
[33] = Binding affinity to melatonin receptor 1
[34] = Activity at rat dorsal root ganglion in inactivated state with prepulse voltage of -40 mV assessed as blockade of TTx-resistant sodium current at 0.3 uM by whole-cell patch clamp technique; format: functional
[35] = molecular target: T5, Sodium channel protein type 10 subunit alpha; assay: Activity at human recombinant Nav 1.8 channel expressed in HEK293 cells in inactivated state with prepulse voltage of -40 mV assessed as blockade of TTx-resistant sodium current at 0.003 uM; format: cell-based
[36] = molecular target: Sodium channel protein type 5 subunit alpha (Homo sapiens, UniProt Q14524); assay: Inhibition of human Nav1.5 channel at 1 uM
[37] = Rattus norvegicus, Sprague-Dawley, ip

T5 sequence (Q9Y5Y9 whole entry, looked up): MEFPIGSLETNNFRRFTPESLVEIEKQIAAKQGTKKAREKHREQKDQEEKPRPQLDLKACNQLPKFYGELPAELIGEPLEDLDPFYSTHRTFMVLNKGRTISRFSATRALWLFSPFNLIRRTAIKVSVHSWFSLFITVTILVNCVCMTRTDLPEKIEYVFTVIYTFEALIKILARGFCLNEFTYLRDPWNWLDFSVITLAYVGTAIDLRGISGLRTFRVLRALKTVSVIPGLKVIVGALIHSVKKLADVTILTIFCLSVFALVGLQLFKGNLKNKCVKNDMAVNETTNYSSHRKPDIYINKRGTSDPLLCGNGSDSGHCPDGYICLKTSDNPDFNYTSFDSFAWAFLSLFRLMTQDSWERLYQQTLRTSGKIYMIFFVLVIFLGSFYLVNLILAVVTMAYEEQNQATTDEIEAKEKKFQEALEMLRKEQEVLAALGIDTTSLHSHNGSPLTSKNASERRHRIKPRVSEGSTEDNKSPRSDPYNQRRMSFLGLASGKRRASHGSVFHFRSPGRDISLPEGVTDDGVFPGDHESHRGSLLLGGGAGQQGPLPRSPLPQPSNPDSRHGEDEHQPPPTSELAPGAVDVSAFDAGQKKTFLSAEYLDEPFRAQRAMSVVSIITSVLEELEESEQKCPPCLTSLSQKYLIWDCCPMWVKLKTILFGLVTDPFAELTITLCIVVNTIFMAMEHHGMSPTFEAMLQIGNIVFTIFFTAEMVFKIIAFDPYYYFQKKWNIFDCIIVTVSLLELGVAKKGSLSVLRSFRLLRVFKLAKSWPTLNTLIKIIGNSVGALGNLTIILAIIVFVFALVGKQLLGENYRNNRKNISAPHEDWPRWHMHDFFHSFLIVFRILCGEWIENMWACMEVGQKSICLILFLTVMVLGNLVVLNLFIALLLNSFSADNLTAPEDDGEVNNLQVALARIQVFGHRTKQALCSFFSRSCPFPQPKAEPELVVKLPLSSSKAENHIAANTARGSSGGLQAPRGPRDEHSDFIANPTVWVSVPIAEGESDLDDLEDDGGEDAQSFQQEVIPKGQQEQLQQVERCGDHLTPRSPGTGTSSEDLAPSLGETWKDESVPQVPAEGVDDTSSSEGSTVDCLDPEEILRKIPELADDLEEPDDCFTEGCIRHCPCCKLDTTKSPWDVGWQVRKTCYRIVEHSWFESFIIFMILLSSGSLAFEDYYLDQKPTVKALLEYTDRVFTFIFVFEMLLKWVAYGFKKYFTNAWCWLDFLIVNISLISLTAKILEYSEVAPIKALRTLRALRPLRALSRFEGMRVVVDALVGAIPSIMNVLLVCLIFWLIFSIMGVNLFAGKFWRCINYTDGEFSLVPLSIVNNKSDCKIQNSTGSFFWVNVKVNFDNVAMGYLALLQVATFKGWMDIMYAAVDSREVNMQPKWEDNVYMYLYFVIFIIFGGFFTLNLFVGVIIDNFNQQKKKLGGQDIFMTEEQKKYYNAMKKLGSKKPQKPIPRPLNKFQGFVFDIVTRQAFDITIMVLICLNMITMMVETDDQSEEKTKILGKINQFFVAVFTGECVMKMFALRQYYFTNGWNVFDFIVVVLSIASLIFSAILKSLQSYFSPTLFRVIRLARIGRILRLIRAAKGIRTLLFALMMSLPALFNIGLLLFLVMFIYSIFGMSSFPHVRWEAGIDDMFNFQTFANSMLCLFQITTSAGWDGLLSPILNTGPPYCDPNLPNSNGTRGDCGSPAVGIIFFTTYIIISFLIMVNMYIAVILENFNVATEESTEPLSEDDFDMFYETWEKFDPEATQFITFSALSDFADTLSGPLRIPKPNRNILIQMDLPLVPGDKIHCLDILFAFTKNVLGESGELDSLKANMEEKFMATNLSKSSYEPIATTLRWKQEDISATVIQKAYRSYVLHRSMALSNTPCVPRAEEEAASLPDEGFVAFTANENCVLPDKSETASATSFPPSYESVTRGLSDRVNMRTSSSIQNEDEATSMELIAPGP
Chain of Sodium channel protein type 9 subunit alpha (Homo sapiens) (Q15858 whole entry, looked up): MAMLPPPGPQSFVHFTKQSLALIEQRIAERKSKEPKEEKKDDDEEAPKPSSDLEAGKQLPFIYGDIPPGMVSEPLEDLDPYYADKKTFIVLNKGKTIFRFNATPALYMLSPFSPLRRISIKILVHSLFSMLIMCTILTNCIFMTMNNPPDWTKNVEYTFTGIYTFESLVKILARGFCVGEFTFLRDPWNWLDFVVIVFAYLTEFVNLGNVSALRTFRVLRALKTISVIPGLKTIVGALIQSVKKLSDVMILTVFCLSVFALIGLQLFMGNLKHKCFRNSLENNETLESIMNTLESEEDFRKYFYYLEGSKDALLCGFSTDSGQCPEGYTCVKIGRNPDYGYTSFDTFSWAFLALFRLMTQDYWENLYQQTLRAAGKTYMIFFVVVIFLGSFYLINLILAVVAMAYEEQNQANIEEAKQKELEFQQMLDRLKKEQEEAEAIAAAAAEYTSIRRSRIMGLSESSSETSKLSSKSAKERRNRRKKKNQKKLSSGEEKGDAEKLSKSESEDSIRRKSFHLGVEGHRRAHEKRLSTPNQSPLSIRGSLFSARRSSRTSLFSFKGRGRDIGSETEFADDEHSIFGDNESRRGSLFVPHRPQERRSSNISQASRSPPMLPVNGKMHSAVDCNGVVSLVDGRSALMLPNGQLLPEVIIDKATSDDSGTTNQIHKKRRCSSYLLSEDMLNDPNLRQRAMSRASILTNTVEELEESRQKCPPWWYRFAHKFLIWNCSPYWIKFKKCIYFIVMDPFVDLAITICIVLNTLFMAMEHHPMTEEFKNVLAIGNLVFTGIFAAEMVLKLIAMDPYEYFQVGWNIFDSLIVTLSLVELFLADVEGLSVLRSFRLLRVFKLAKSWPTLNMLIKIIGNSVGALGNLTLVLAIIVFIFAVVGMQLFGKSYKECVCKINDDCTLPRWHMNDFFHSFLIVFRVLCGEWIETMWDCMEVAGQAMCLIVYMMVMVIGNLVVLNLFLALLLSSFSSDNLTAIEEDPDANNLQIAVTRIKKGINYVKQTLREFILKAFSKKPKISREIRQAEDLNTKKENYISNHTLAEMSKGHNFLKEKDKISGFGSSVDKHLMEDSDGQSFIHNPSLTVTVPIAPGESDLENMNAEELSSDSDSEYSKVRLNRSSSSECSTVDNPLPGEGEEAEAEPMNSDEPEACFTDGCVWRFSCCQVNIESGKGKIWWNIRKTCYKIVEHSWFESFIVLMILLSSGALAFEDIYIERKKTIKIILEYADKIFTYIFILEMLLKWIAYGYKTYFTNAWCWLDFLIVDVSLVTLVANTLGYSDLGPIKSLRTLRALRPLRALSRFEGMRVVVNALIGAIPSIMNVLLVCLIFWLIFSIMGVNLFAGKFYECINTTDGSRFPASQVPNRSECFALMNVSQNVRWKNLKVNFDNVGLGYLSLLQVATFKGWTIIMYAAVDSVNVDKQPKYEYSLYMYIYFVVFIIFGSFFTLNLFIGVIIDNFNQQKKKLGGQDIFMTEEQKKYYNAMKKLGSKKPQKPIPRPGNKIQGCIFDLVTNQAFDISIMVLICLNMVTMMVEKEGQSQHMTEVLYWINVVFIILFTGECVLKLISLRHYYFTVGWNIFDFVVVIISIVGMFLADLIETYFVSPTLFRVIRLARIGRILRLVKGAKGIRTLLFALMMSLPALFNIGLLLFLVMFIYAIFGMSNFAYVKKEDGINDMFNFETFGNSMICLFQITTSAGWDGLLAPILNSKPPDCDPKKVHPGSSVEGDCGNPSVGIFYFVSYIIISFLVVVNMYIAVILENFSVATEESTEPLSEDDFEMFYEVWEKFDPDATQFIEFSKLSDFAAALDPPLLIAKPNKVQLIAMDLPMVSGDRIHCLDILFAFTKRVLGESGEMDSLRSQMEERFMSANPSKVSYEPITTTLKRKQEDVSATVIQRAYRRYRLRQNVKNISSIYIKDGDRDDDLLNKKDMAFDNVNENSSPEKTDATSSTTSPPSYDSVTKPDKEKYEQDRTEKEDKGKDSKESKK
T4 sequence (P28223 whole entry): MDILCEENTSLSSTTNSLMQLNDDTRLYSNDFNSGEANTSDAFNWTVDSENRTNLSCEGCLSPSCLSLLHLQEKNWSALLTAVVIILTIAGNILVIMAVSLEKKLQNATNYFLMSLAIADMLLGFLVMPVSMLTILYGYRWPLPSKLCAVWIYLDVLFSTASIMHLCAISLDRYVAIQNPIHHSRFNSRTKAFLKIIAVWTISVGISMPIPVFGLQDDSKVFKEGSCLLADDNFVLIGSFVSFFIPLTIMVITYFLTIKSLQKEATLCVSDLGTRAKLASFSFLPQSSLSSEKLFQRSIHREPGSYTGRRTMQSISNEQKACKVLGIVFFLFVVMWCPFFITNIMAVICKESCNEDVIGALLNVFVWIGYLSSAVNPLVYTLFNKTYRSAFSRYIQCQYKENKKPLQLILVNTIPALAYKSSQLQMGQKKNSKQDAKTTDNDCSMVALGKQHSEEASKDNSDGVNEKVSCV
T3 sequence (P21728 whole entry): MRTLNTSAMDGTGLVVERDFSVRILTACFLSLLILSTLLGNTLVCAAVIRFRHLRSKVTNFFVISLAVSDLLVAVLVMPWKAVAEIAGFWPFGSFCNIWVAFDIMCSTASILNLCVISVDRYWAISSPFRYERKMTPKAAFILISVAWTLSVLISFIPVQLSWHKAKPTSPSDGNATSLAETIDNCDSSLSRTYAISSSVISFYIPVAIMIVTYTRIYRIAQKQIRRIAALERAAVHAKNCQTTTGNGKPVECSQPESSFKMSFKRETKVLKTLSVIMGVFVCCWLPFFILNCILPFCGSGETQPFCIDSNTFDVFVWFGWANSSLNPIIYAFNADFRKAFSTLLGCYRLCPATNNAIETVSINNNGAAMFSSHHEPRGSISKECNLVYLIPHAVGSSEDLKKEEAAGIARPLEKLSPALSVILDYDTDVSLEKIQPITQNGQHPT
T1 sequence (P30536 whole entry): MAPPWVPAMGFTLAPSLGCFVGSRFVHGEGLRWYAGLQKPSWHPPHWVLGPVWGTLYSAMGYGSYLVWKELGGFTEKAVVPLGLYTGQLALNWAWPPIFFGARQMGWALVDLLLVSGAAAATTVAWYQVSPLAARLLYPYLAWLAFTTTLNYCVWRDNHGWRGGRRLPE

`COc1cc(NC(=O)c2ccc(-c3ccc(Cl)cc3)o2)cc(OC)c1` showed a Kp [1] of 1.1, an IC50 [2] of over 2 µM and an inhibition [3] of 52%. The inhibition [4] was over 60%, the inhibition at 10 µM [5] was 49% and the inhibition at 3 µM [6] was 44%. The Activity [7] was 70%, the ED50 [7, 37] was 47 mg/kg and the inhibition at 0.1 µM [8] was 14%. It also gave an inhibition [9] of over 60%, an IC50 [10] of over 2 µM and an Activity [11] of 64%. For the same molecule, the ED50 [11, 37] was 41 mg/kg, the inhibition [12] was 59% and the inhibition [13] was 19%. It also gave an inhibition [14] of 30%, an IC50 [15] of over 2 µM and an inhibition [16] of 59%. It also gave an inhibition at 0.3 µM [17] of 48%, an inhibition [18] of over 60% and a microsomal CLint [19] of 140 µL/min/mg. For the same molecule, the Vd [20] was 6.4 L/kg, the inhibition [21] was 42% and the inhibition [22] was 54%. The inhibition [23] was 5%, the inhibition [24] was 41% and the Activity [25] was 56%. It also gave an ED50 [25, 37] of 85 mg/kg, an IC50 [26] of over 2 µM and a half-life [27] of 7.3 h. The inhibition [28] was 70%, the inhibition at 0.1 µM [29] was 48% and the IC50 [30] was 0.85 µM. For the same molecule, the inhibition [31] was over 60%, the inhibition [32] was 53% and the IC50 [33] was over 2 µM. It also gave an inhibition at 0.3 µM [34] of 71%, an inhibition [35] of 30% and an IC50 [36] of over 2 µM.
